The pEC50 is −log10 of the EC50, conventionally taken in molar units.

The results in this text go back to US8846739B2, “TGR5 agonists” (Exelixis Patent Company LLC, priority 2009, dated 2014).

pEC50: −log10 of the molar value. Where a name gives a salt, the structure may show the parent alone.

One experiment addresses T1, h-TGR5 (Homo sapiens, UniProt Q8TDU6).
T1 sequence (Q8TDU6 1-330): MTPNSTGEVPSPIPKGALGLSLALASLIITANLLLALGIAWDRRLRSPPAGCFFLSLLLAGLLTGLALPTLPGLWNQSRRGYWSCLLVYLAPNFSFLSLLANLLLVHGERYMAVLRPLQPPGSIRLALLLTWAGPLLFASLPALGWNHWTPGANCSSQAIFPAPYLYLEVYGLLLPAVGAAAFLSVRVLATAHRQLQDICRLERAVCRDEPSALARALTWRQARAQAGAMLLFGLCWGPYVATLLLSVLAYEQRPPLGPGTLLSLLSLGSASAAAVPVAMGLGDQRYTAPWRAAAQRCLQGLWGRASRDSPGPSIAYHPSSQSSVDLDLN
Nature of the experiment: TGR5 cAMP Assay using Cisbio cAMP Dynamic 2 htrf assay kit. It is filed as cell-based. The conditions noted are these: hTGR5CRE-luc HEK 293 cells. The procedure: Compounds were diluted in DPBS with 5% DMSO (8-point serial dilution by half logs) in a 96-well plate and 1 μL was transferred to a 384-well assay plate in quadruplicate. The d2-cAMP and anti-cAMP Ab-cryptate stock solution were prepared as per the instructions in the Cisbio™ (Bedford, Mass.) kit. Cells (hTGR5CRE-luc HEK 293 and mTGR5CRE-luc HEK 293) were harvested using cell dissociation buffer and resuspended in DPBS. Cells were adjusted to 0.44×10^6 cells/ml followed by addition of IBMX to a final concentration of 0.5 mM. The cells were then mixed with d2-cAMP solution (7.1 mL cells+100 ul d2-cAMP) and 4000 cells (9 μL) were transferred to each well of the 384-well assay plate. Cells without d2-cAMP were added to eight wells as a negative control. The plate was covered and incubated at room temp for 30 min. Then 10 μL of Ab-cryptate solution was added to each well of the assay plate and incubated for 1 hr. The plate was read on an EnVision™ plate reader (Perkin-Elmer, Waltham, Mass.) and the DeltaF value was calculated as per the instructions in the Cisbio™ kit.
(§1) In the following tables, ECso values determined according to the TGR5 cAMP Assay are noted (cAMP); EC50 values determined according to the TGR5/CRE-Luciferiase Assay are noted (CRE-Luc).

For a further experiment, the target named is T2, human TGR5 (h-TGR5) (Homo sapiens, UniProt Q8TDU6).
T2 sequence (Q8TDU6 1-330): T1 sequence (Q8TDU6 1-330)
In words: TGR5/CRE-Luciferase Assay. It is filed as cell-based. The settings on record: HEK 293 hTGR5/CRE-Luc cells, 6 hours incubation, read-out: CRE-Luc Agonist (EC50). The procedure:
HEK 293 cells stably expressing human TGR5 (h-TGR5) or mouse TGR5 (m-TGR5) were generated from HEK 293 CRE-Luciferase cells. The day before the assay, HEK 293 hTGR5/CRE-Luc cells were plated in DMEM in a 384 well assay plate at a density of 25 k cells/45 μL per well and grown for 18-20 hours. Compounds were serially diluted in DMEM containing 5% DMSO and 5 µL of compound or media alone was transferred to each well and plates were incubated for 6 hours. Following incubation, 30 μL of lysis/luciferase buffer was added to each well. The luciferase activity was then measured on the EnVision™ plate reader and the dose response data was analyzed using ActivityBase.
as §1

For `COc1cc(C(C)(C)c2cnc(SCc3c(F)cc(S(=O)(=O)N4CCC[C@@H]([N+](C)(C)C)C4)cc3Cl)n2-c2ccc(F)cc2)ccc1Cl` [Compound 11g, (3R)-1-{[3-chloro-4-({[5-{1-[4-chloro-3-(methyloxy)phenyl]-1-methylethyl}-1-(4-fluorophenyl)-1H-imidazol-2-yl]thio}methyl)-5-fluorophenyl]sulfonyl}-N,N,N-trimethylpiperidin-3-aminium], the pEC50 at h-TGR5 and on human TGR5 (h-TGR5) was more than 7.00 each time.

In the case of “2-({[3-chloro-5-fluoro-4-({[5-{1-[4-fluoro-3-(methyloxy)phenyl]-1-methylethyl}-1-(4-fluorophenyl)-1H-imidazol-2-yl]thio}methyl)phenyl]carbonyl}amino)-N,N,N-trimethylethanaminium [Example 1d]”, the pEC50 on h-TGR5 and at human TGR5 (h-TGR5) was more than 7.00 throughout.

As for `COc1cc(C(C)(C)c2cnc(SCc3c(F)cc(C(=O)N[C@H]4CC[N+](C)(C)C4)cc3Cl)n2-c2ccc(F)cc2)ccc1Cl` [Example 2f, (3S)-3-({[3-chloro-4-({[5-{1-[4-chloro-3-(methyloxy)phenyl]-1-methylethyl}-1-(4-fluorophenyl)-1H-imidazol-2-yl]thio}methyl)-5-fluorophenyl]carbonyl}amino)-1,1-dimethylpyrrolidinium], the pEC50 on h-TGR5 and at human TGR5 (h-TGR5) was more than 7.00 each time.

Turning to `COc1cc(C(C)(C)c2cnc(SCc3c(F)ccc(S(=O)(=O)NCCC[N+](C)(C)C)c3F)n2-c2ccc(F)cc2)ccc1Cl` [Example 7a, 3-({[3-({[5-{1-[4-chloro-3-(methyloxy)phenyl]-1-methylethyl}-1-(4-fluorophenyl)-1H-imidazol-2-yl]thio}methyl)-2,4-difluorophenyl]sulfonyl}amino)-N,N,N-trimethylpropan-1-aminium], the pEC50 on h-TGR5 and on human TGR5 (h-TGR5) was more than 7.00 in each case.

With `COc1cc(C(C)(C)c2cnc(SCc3c(F)cc(S(=O)(=O)NCCc4ccc[n+](C)c4)cc3Cl)n2-c2ccc(F)cc2)ccc1F` [Compound 11, 3-(2-(3-chloro-5-fluoro-4-((5-(2-(4-fluoro-3-methoxyphenyl)propan-2-yl)-1-(4-fluorophenyl)-1H-imidazol-2-ylthio)methyl)phenylsulfonamido)ethyl)-1-methylpyridinium chloride], the negative-log EC50 (pEC50) on h-TGR5 and at human TGR5 (h-TGR5) was more than 7.00 throughout.

As for `COc1cc(C(C)(C)c2cnc(SCc3c(F)cc(S(=O)(=O)N[C@@H]4CCC[N+](C)(C)C4)cc3F)n2-c2ccc(F)cc2)ccc1Cl` [Compound 11d, (3R)-3-({[4-({[5-{1-[4-chloro-3-(methyloxy)phenyl]-1-methylethyl}-1-(4-fluorophenyl)-1H-imidazol-2-yl]thio}methyl)-3,5-difluorophenyl]sulfonyl}amino)-1,1-dimethylpiperidinium], the pEC50 on h-TGR5 and at human TGR5 (h-TGR5) was more than 7.00 throughout.

On to `COc1cc(-n2c(C(C)(C)c3ccc(Cl)c(Cl)c3)cnc2SCc2c(F)cc(C(=O)N[C@H]3CC[N+](C)(C)C3)cc2Cl)ccc1F` [Example 2r, (3S)-3-[({3-chloro-4-[({5-[1-(3,4-dichlorophenyl)-1-methylethyl]-1-[4-fluoro-3-(methyloxy)phenyl]-1H-imidazol-2-yl}thio)methyl]-5-fluorophenyl}carbonyl)amino]-1,1-dimethylpyrrolidinium], for which the pEC50 at h-TGR5 and at human TGR5 (h-TGR5) was more than 7.00 in each case.

`COc1cc(C(C)(C)c2cnc(SCc3c(F)cc(C(=O)N[C@H]4CCC[N+](C)(C)C4)cc3Cl)n2-c2ccc(F)cc2)ccc1Cl` [Example 2d, (3S)-3-({[3-chloro-4-({[5-{1-[4-chloro-3-(methyloxy)phenyl]-1-methylethyl}-1-(4-fluorophenyl)-1H-imidazol-2-yl]thio}methyl)-5-fluorophenyl]carbonyl}amino)-1,1-dimethylpiperidinium]: the pEC50 at h-TGR5 and on human TGR5 (h-TGR5) was more than 7.00 each time.

`COc1cc(C(C)(C)c2cnc(SCc3c(F)cc(S(=O)(=O)NCCC[N+](C)(C)C)cc3F)n2-c2ccc(F)cc2)ccc1F` [Example 6f, 3-({[3,5-difluoro-4-({[5-{1-[4-fluoro-3-(methyloxy)phenyl]-1-methylethyl}-1-(4-fluorophenyl)-1H-imidazol-2-yl]thio}methyl)phenyl]sulfonyl}amino)-N,N,N-trimethylpropan-1-aminium]: the pEC50 on h-TGR5 and at human TGR5 (h-TGR5) was more than 7.00 each time.

In the case of `COc1cc(-n2c(C(C)(C)c3ccc(Cl)c(Cl)c3)cnc2SCc2c(F)cc(C(=O)NCC[N+](C)(C)C)cc2Cl)ccc1F` [Example 2n, 2-[({3-chloro-4-[({5-[1-(3,4-dichlorophenyl)-1-methylethyl]-1-[4-fluoro-3-(methyloxy)phenyl]-1H-imidazol-2-yl}thio)methyl]-5-fluorophenyl}carbonyl)amino]-N,N,N-trimethylethanaminium], the pEC50 on h-TGR5 and on human TGR5 (h-TGR5) was more than 7.00 throughout.

As to `COc1cc(C(C)(C)c2cnc(SCc3c(F)cc(C(=O)NCC[N+]45CCN(CC4)CC5)cc3Cl)n2-c2ccc(F)cc2)ccc1Cl` [Example 2, 1-(2-(3-chloro-4-((5-(2-(4-chloro-3-methoxyphenyl)propan-2-yl)-1-(4-fluorophenyl)-1H-imidazol-2-ylthio)methyl)-5-fluorobenzamido)ethyl)-4-aza-1-azoniabicyclo-[2.2.2]octane chloride hydrochloride], the pEC50 on h-TGR5 and on human TGR5 (h-TGR5) was more than 7.00 in each case.

Take `COc1cc(C(C)(C)c2cnc(SCc3c(F)cc(CCC[N+]45CCN(CC4)CC5)cc3F)n2-c2ccc(F)cc2)ccc1Cl` [Compound 19, 1-(3-(4-((5-(2-(4-chloro-3-methoxyphenyl)propan-2-yl)-1-(4-fluorophenyl)-1H-imidazol-2-ylthio)methyl)-3,5-difluorophenyl)propyl)-4-aza-1-azoniabicyclo[2.2.2.2]octane 2,2,2-trifluoroacetate]: the pEC50 on h-TGR5 and on human TGR5 (h-TGR5) was more than 7.00 in each case.

As for `COc1cc(C(C)(C)c2cnc(SCc3c(F)cc(S(=O)(=O)N(CCC[n+]4ccccc4)[C@H](C)C(=O)O)cc3Cl)n2-c2ccc(F)cc2)ccc1Cl` [Compound 15a, (R)-1-(3-(N-(1-carboxyethyl)-3-chloro-4-((5-(2-(4-chloro-3-methoxyphenyl)propan-2-yl)-1-(4-fluorophenyl)-1H-imidazol-2-ylthio)methyl)-5-fluorophenylsulfonamido)propyl)pyridinium chloride], the pEC50 on h-TGR5 and on human TGR5 (h-TGR5) was more than 7.00 in each case.

As for `COC(=O)C(C)(C)N(CCC[N+](C)(C)C)S(=O)(=O)c1cc(F)c(CSc2ncc(C(C)(C)c3ccc(Cl)c(OC)c3)n2-c2ccc(F)cc2)c(F)c1` [Compound 14af, 3-({[4-({[5-{1-[4-chloro-3-(methyloxy)phenyl]-1-methylethyl}-1-(4-fluorophenyl)-1H-imidazol-2-yl]thio}methyl)-3,5-difluorophenyl]sulfonyl}[1,1-dlmethyl-2-(methyloxy)-2-oxoethyl]amino)-N,N,N-trimethylpropan-1-aminium], the pEC50 at h-TGR5 and at human TGR5 (h-TGR5) was more than 7.00 each time.

Turning to `COc1cc(C(C)(C)c2cnc(CCc3c(F)cc(S(=O)(=O)N(C)[C@@H](CCC[N+](C)(C)C)C(=O)O)cc3F)n2-c2ccc(F)cc2)ccc1Cl` [Compound 14i, (S)-4-carboxy-4-(4-(2-(5-(2-(4-chloro-3-methoxyphenyl)propan-2-yl)-1-(4-fluorophenyl)-1H-imidazol-2-yl)ethyl)-3,5-difluoro-N-methylphenylsulfonamido)-N,N,N-trimethylbutan-1-aminium chloride], the pEC50 on h-TGR5 and on human TGR5 (h-TGR5) was more than 7.00 each time.

In the case of `COc1cc(C(C)(C)c2cnc(COc3c(F)cc(C(=O)NCC[N+](C)(C)C)cc3Cl)n2-c2ccc(F)cc2)ccc1Cl` [Example 1e, 2-({[3-chloro-4-({[5-{1-[4-chloro-3-(methyloxy)phenyl]-1-methylethyl}-1-(4-fluorophenyl)-1H-imidazol-2-yl]methyl}oxy)-5-fluorophenyl]carbonyl}amino)-N,N,N-trimethylethanaminium], the pEC50 on h-TGR5 and on human TGR5 (h-TGR5) was more than 7.00 in each case.
